Results on 18 compounds are retold here after patent publication US7935815B2, “Imidazoyl pyridine compounds and salts thereof” (Eisai R&D Management Co., Ltd., priority 2007, dated 2011).

One test has as its system Aβ42 production. The experiment in a line: Quantification of Aβ peptide in culture of neurons from rat fetus brain (Aβ ELISA). The format is cell-based. The following applies: Rattus norvegicus, Neuron, 72 h, rat primary neuronal culture (embryonic day 18 Wistar rat cerebral cortex); cultured three days after addition of compound; Aβx-42 ELISA of the medium; read-out: Aβ42 production reducing effect IC50. As for the experimental part: Quantification of Aβ Peptide in Culture of Neurons from Rat Fetus Brain
(1) Rat Primary Neuronal Culture
Primary neuronal cultures were prepared from the cerebral cortex of embryonic day 18 Wistar rats (Charles River Japan, Yokohama, Japan). Specifically, the embryos were aseptically removed from pregnant rats under ether anesthesia. The brain was isolated from the embryo and immersed in an ice-cold L-15 medium (Invitrogen Corp. Cat #11415-064, Carlsbad, Calif., USA, or SIGMA L1518, for example). The cerebral cortex was collected from the isolated brain under a stereoscopic microscope. The cerebral cortex fragments collected were enzymatically treated in an enzyme solution containing 0.25% trypsin (Invitrogen Corp. Cat #15050-065, Carlsbad, Calif., USA) and 0.01% DNase (Sigma D5025, St. Louis, Mo., USA) at 37° C. for 30 minutes to disperse the cells. Here, the enzymatic reaction was stopped by adding inactivated horse serum to the solution. The enzymatically treated solution was centrifuged at 1,500 rpm for five minutes to remove the supernatant. 5 to 10 ml of a medium was added to the resulting cell mass. Neurobasal medium (Invitrogen Corp. Cat #21103-049, Carlsbad, Calif., USA) supplemented with 2% B27 supplement (Invitrogen Corp. Cat #17504-044, Carlsbad, Calif., USA), 25 μM 2-mercaptoethanol (2-ME, WAKO Cat #139-06861, Osaka, Japan), 0.5 mM L-glutamine (Invitrogen Corp. Cat #25030-081, Carlsbad, Calif., USA), and Antibiotics-Antimycotics (Invitrogen Corp. Cat #15240-062, Carlsbad, Calif., USA) was used as the medium (Neurobasal/B27/2-ME). However, the above Neurobasal medium not supplemented with 2-ME (Neurobasal/B27) was used for the assay. The cells were redispersed by mild pipetting of the cell mass to which the medium was added. The cell dispersion was filtered through a 40-μm nylon mesh (Cell Strainer, Cat #35-2340, Becton Dickinson Labware, Franklin Lakes, N.J., USA) to remove the remaining cell mass, and thus a neuronal cell suspension was obtained. The neuronal cell suspension was diluted with the medium and then plated in a volume of 100 μl/well at an initial cell density of 5×10^5 cells/cm^2 in a 96-well polystyrene culture plate pre-coated with poly-L or D-lysine (Falcon Cat #35-3075, Becton Dickinson Labware, Franklin Lakes, N.J., USA coated with poly-L-lysine using the method shown below, or BIOCOAT™ cell environments Poly-D-lysine cell ware 96-well plate, Cat #35-6461, Becton Dickinson Labware, Franklin Lakes, N.J., USA). Poly-L-lysine coating was carried out as follows. 100 μg/ml of a poly-L-lysine (SIGMA P2636, St. Louis, Mo., USA) solution was aseptically prepared with a 0.15 M borate buffer (pH 8.5). 100 μl/well of the solution was added to the 96-well polystyrene culture plate and incubated at room temperature for one or more hours or at 4° C. overnight or longer. The coated 96-well polystyrene culture plate was washed with sterile water four or more times, and then dried or rinsed with, for example, sterile PBS or medium, and used for cell plating. The plated cells were cultured in the culture plate at 37° C. in 5% CO2-95% air for one day. Then, the total amount of the medium was replaced with a fresh Neurobasal™/B27/2-ME medium, and then the cells were cultured for further three days.
The drug was added to the culture plate on Day 4 of culture as follows. The total amount of the medium was removed from the wells, and 180 μl/well of Neurobasal medium not containing 2-ME and containing 2% B-27 (Neurobasal/B27) was added thereto. A solution of the test compound in dimethyl sulfoxide (hereinafter abbreviated as DMSO) was diluted with Neurobasal/B27 at 10-fold of the final concentration. 20 μl/well of the dilution was added to and sufficiently mixed with the medium. The final DMSO concentration was 1% or less. Only DMSO was added to the control group.
The cells were cultured for three days after addition of the compound, and the total amount of the medium was collected. […]
A general note: In an ELISA, binding on a coated surface is turned into a signal by an enzyme label.
On to `COc1nc(/C=C/c2nc3n(n2)CCCC3c2c(F)cccc2C(F)(F)F)ccc1-n1cnc(C)c1` (single isomer, unassigned; (-)) [Example 331, (−)-8-(6-fluoro-2-trifluoromethylphenyl)-2-{(E)-2-[6-methoxy-5-(4-methyl-1H-imidazol-1-yl)pyridin-2-yl]vinyl}-5,6,7,8-tetrahydro-[1,2,4]triazolo[1,5-a]pyridine], for which the IC50 worked out at 22 nM.

As for `COc1cc(/C=C/c2nc3n(n2)CCC[C@H]3C2CCCCC2)ccc1-n1cnc(C)c1` (single isomer, unassigned) [Example 114, (−)-8-cyclohexyl-2-{(E)-2-[3-methoxy-4-(4-methyl-1H-imidazol-1-yl)phenyl]vinyl}-5,6,7,8-tetrahydro[1,2,4]triazolo[1,5-a]pyridine], the IC50 was determined as 51 nM.

`COc1cc(/C=C/c2nc3n(n2)CCCC3c2ccc(F)cc2)cnc1-n1cnc(C)c1` (single isomer, unassigned) [Example 212, (−)-8-(4-fluorophenyl)-2-{(E)-2-[5-methoxy-6-(4-methyl-1H-imidazol-1-yl)pyridin-3-yl]vinyl}-5,6,7,8-tetrahydro-[1,2,4]triazolo[1,5-a]pyridine]: the IC50 was found to be 100 nM.

Take `COc1nc(/C=C/c2nc3n(n2)CCC3c2ccccc2C(F)(F)F)ccc1-n1cnc(C)c1` (stereo not drawn) [Example 390, 2-{(E)-2-[6-methoxy-5-(4-methyl-1H-imidazol-1-yl)pyridin-2-yl]vinyl}-7-(2-trifluoromethylphenyl)-6,7-dihydro-5H-pyrrolo[1,2-b][1,2,4]triazole]: the IC50 came out at 26 nM.

With `COc1cc(/C=C/c2nc3n(n2)CCC[C@]3(C#N)c2cc(F)c(F)c(F)c2)ccc1-n1cnc(C)c1` (single isomer, unassigned) [Example 72, (−)-2-{(E)-2-[3-methoxy-4-(4-methyl-1H-imidazol-1-yl)phenyl]vinyl}-8-(3,4,5-trifluorophenyl)-5,6,7,8-tetrahydro[1,2,4]triazolo[1,5-a]pyridine-8-carbonitrile], the IC50 was determined as 26 nM.

For `Cc1cn(-c2ccc(/C=C/c3nc4n(n3)CCCC4c3ccccc3C(F)(F)F)nc2OCC(F)F)cn1` (single isomer, unassigned; (-)) [Example 354, (−)-2-{(E)-2-[5-(4-methyl-1H-imidazol-1-yl)-6-(2,2-difluoroethoxy)pyridin-2-yl]vinyl}-8-(2-trifluoromethylphenyl)-5,6,7,8-tetrahydro-[1,2,4]triazolo[1,5-a]pyridine], the IC50 was 37 nM.

With `COc1nc(/C=C/c2nc3n(n2)CCC[C@H]3c2ccc(F)cc2Cl)ccc1-n1cnc(C)c1` (single isomer, unassigned) [Example 187, (−)-8-(2-chloro-4-fluorophenyl)-2-{(E)-2-[6-methoxy-5-(4-methyl-1H-imidazol-1-yl)pyridin-2-yl]vinyl}-5,6,7,8-tetrahydro-[1,2,4]triazolo[1,5-a]pyridine], the IC50 came to 38 nM.

`COc1cc(/C=C/c2nc3n(n2)CCCC3c2ccc(F)c(F)c2)cnc1-n1cnc(C)c1` (single isomer, unassigned) [Example 218, (−)-8-(3,4-difluorophenyl)-2-{(E)-2-[5-methoxy-6-(4-methyl-1H-imidazol-1-yl)pyridin-3-yl]vinyl}-5,6,7,8-tetrahydro-[1,2,4]triazolo[1,5-a]pyridine]: the IC50 was determined as 69 nM.

On to `COc1nc(/C=C/c2nc3n(n2)CCC3c2cc(F)ccc2C(F)(F)F)ccc1-n1cnc(C)c1` (stereo not drawn) [Example 392, 7-(5-fluoro-2-trifluoromethylphenyl)-2-{(E)-2-[6-methoxy-5-(4-methyl-1H-imidazol-1-yl)pyridin-2-yl]vinyl}-6,7-dihydro-5H-pyrrolo[1,2-b][1,2,4]triazole], for which the IC50 amounted to 22 nM.

`COc1cc(/C=C/c2nc3n(n2)CCC[C@]3(O)c2cc(F)c(F)c(F)c2)c(F)cc1-n1cnc(C)c1` (single isomer, unassigned) [Example 96, (−)-2-{(E)-2-[2-fluoro-5-methoxy-4-(4-methyl-1H-imidazol-1-yl)phenyl]vinyl}-8-(3,4,5-trifluorophenyl)-5,6,7,8-tetrahydro[1,2,4]triazolo[1,5-a]pyridin-8-ol]: the IC50 amounted to 63 nM.

In the case of `COc1nc(/C=C/c2nc3n(n2)CCC[C@H]3c2ccc(F)cc2Br)ccc1-n1cnc(C)c1` (single isomer, unassigned) [Example 185, (−)-8-(2-bromo-4-fluorophenyl)-2-{(E)-2-[6-methoxy-5-(4-methyl-1H-imidazol-1-yl)pyridin-2-yl]vinyl}-5,6,7,8-tetrahydro-[1,2,4]triazolo[1,5-a]pyridine], the IC50 came out at 34 nM.

For the compound `COc1cc(/C=C/c2nc3n(n2)CCC[C@@H]3C2CCOCC2)ccc1-n1cnc(C)c1` (single isomer, unassigned) [Example 116, (−)-2-{(E)-2-[3-methoxy-4-(4-methyl-1H-imidazol-1-yl)phenyl]vinyl}-8-(tetrahydropyran-4-yl)-5,6,7,8-tetrahydro[1,2,4]triazolo[1,5-a]pyridine], the half-maximal inhibitory concentration (IC50) came out at 173 nM.

For `COc1nc(/C=C/c2nc3n(n2)C(C)CCC3c2ccccc2C(F)(F)F)ccc1-n1cnc(C)c1` (stereo not drawn) [Example 361, 2-{(E)-2-[6-methoxy-5-(4-methyl-1H-imidazol-1-yl)pyridin-2-yl]vinyl}-5-methyl-8-(2-trifluoromethylphenyl)-5,6,7,8-tetrahydro-[1,2,4]triazolo[1,5-a]pyridine], the IC50 is 12 nM.

Turning to `COc1nc(/C=C/c2nc3n(n2)CCC[C@H]3c2cccc(C)c2F)ccc1-n1cnc(C)c1` (single isomer, unassigned) [Example 282, (−)-8-(2-fluoro-3-methylphenyl)-2-{(E)-2-[6-methoxy-5-(4-methyl-1H-imidazol-1-yl)pyridin-2-yl]vinyl}-5,6,7,8-tetrahydro-[1,2,4]triazolo[1,5-a]pyridine], the IC50 came to 29 nM.

In the case of `COc1cc(/C=C/c2nc3n(n2)C[C@@H](O)C[C@@H]3c2cc(F)c(F)c(F)c2)ccc1-n1cnc(C)c1` [Example 108, (6S,8R)-2-{(E)-2-[3-methoxy-4-(4-methyl-1H-imidazol-1-yl)phenyl]vinyl}-8-(3,4,5-trifluorophenyl)-5,6,7,8-tetrahydro-[1,2,4]triazolo[1,5-a]pyridin-6-ol], the IC50 came out at 29 nM.

With `COc1cc(/C=C/c2nc3n(n2)C[C@H](O)C[C@@H]3c2cc(F)c(F)c(F)c2)ccc1-n1cnc(C)c1` [Example 110, (6R,8R)-2-{(E)-2-[3-methoxy-4-(4-methyl-1H-imidazol-1-yl)phenyl]vinyl}-8-(3,4,5-trifluorophenyl)-5,6,7,8-tetrahydro-[1,2,4]triazolo[1,5-a]pyridin-6-ol], the IC50 is 33 nM.

For `COc1cc(/C=C/c2nc3n(n2)CCCC3(O)c2ccccc2F)ccc1-n1cnc(C)c1` (single isomer, unassigned) [Example 59, (−)-8-(2-fluorophenyl)-2-{(E)-2-[3-methoxy-4-(4-methyl-1H-imidazol-1-yl)phenyl]vinyl}-5,6,7,8-tetrahydro-[1,2,4]triazolo[1,5-a]pyridin-8-ol], the half-maximal inhibitory concentration (IC50) worked out at 45 nM.

The test is the same for the next values; noted with them: rat primary neuronal culture (embryonic day 18 Wistar rat cerebral cortex); cultured three days after addition of compound; Aβx-42 ELISA of the medium; read-out: Aβ42 production reducing effect IC50.
Take `COc1nc(/C=C/c2nc3n(n2)CCC[C@H]3c2ccc(F)c(F)c2F)ccc1-n1cnc(C)c1` [Example 339, (S)-2-{(E)-3-[6-methoxy-5-(4-methyl-1H-imidazol-1-yl)pyridin-2-yl]vinyl}-8-(2,3,4-trifluorophenyl)-5,6,7,8-tetrahydro-[1,2,4]triazole[1,5-a]pyridine]: the IC50 turned out to be 21 nM.

In general, IC50 refers to the midpoint of a concentration-inhibition curve.
